Experimental data from patent US20070213324A1 (priority 2006, published 2007).

Experiments:
[1] = in vivo
[2] = cited from earlier work
[3] = Phase I bioavailability study, single dose and steady state; conditions: carisoprodol, any condition
Experimental: Sixty healthy male volunteers participated in the study and were divided into four treatment groups. […] The study was prospective, single-blind, parallel, longitudinal, and comparative with a placebo and with the components of the combination administered separately, with randomized distribution into 4 groups.
A pharmacokinetic study was conducted on day 1 and day 14 so that bioavailability could be clearly identified for single dose and for multiple doses, and so that the bioequivalence of the combined product could be compared to the individual products.

[4] = system: pain produced by a sprained ankle; assay: Phase II evaluation of pain by visual analogue scale (VAS); type: in vivo, human; conditions: for time from administration to analgesic effect (VAS, significant versus placebo): carisoprodol 200 mg / meloxicam 15 mg, sprained ankle
[5] = cited from earlier work; remark: listed apart in the source
[6] = system: platelet aggregation induced by collagen or arachidonic acid; conditions: cited from earlier work
[7] = system: production of thromboxane in platelets; conditions: cited from earlier work
[8] = system: plasma proteins; conditions: cited from earlier work
[9] = system: functional recovery of patients with a sprained ankle; assay: Phase II functional recovery

## CCCC(C)(COC(N)=O)COC(=O)NC(C)C (stereo not shown) [Carisoprodol]
[1]
  blood pressure: decrease in blood pressure
  changes in the physiological tests (reaction time, awareness): did not produce any changes
  sedative effect: MINIMENTAL test before versus after administration: no significant differences
[2]; in vivo
  half-life: 8 h
  time of initial musculoskeletal relaxant effect: 30 to 45 min
[3]
  bioequivalence, combined versus on its own: no bioequivalence in any condition

## Cc1cnc(NC(=O)C2=C(O)c3ccccc3S(=O)(=O)N2C)s1 [Meloxicam, 4-hydroxy-2-methyl-N-(5-methyl-2-thiazolyl)-2H-1,2-benzothiazine-3-carboxamide-1,1-dioxide]
[4]
  time from administration to analgesic effect (VAS, significant versus placebo): up to 360 minutes
[4]; listed as meloxicam
  time from administration to analgesic effect (VAS, significant versus placebo): 360 min
[4]; minute 360
  p versus placebo, VAS: 0.021
[5]; methanol
  solubility in methanol: very slightly soluble
[5]; strong acids and bases
  solubility in strong acids and bases: higher solubility
[5]; water
  solubility in water: practically insoluble in water
[6]
  inhibition of platelet aggregation: does not inhibit
[7]
  production of thromboxane in platelets: significantly reduce
[8]
  bound to plasma proteins: 99.5%
[2]; after administration, enterohepatic circulation
  time of second maximum concentration peak: 12 to 14 h
[2]; days of dosage
  time to steady state: 5 days
[2]; in vivo
  effect of food intake on absorption: not altered
[2]; orally
  absorbed after administration: 89%
[9]; 1440 minutes
  p versus placebo, functional recovery: 0.037
[9]; in vivo
  time at which functional recovery is statistically different from placebo: 24 h
[9]; sprained ankle
  time from administration to functional recovery (significant versus placebo): 1440 min
